SMILES strings stand for the structures.

The target in one assay is T1, human kinase Mps-1 (Homo sapiens, UniProt P33981).
T1 construct: N-terminally GST-tagged human full length recombinant Mps-1 kinase; GST (N); purchased Invitrogen, Karslruhe, Germany PV4071
T1 sequence (P33981 1-857): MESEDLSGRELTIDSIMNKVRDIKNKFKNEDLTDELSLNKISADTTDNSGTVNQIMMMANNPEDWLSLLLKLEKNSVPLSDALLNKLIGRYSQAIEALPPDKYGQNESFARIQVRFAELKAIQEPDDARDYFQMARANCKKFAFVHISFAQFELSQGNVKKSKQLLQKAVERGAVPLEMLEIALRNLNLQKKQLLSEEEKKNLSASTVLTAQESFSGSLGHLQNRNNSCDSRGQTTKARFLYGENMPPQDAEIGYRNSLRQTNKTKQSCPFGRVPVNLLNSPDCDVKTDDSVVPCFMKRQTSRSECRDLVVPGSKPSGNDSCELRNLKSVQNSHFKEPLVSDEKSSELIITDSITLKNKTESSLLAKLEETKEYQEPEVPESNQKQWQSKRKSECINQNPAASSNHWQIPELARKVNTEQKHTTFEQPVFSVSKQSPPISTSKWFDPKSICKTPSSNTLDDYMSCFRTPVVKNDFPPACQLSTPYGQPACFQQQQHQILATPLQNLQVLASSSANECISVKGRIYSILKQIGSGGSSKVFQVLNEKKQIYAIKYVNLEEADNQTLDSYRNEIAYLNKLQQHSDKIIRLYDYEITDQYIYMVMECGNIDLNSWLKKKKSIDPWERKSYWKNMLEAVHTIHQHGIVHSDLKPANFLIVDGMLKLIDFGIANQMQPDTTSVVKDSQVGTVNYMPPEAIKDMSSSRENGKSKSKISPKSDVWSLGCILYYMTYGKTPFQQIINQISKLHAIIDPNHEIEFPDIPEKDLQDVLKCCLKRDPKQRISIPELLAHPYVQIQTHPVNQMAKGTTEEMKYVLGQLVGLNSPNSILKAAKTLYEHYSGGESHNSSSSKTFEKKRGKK
Nature of the assay: Mps-1 kinase assay (TR-FRET). Type of assay: biochemical. Conditions: Mps1 IC50 [nM], N-terminally GST-tagged human full length recombinant Mps-1; 10 μM ATP; 1 μM biotinylated peptide substrate; 60 min at 22° C. In general terms: TR-FRET usually uses a lanthanide donor and a delayed reading to cut background.
With `O=C(NC1CC1)c1ccc(-c2cnc3c(NCCCO)nccn23)cc1O` [Example 7-78, N-cyclopropyl-2-hydroxy-4-{8-[(3-hydroxypropyl)amino]imi-dazo[1,2-a]pyrazin-3-yl}benzamide], the IC50 (as a rule, the midpoint of a concentration-inhibition curve) is 93.1 nM.
On the same count and under the same terms, the value for `O=C(NC1CC1)c1ccc(-c2cnc3c(NCc4ccco4)nccn23)cc1O` [Example 7-79, N-cyclopropyl-4-{8-[(furan-2-ylmethyl)amino]imi-dazo[1,2-a]pyrazin-3-yl}-2-hydroxybenzamide] was 77.3 nM.
With `CC(C)CNc1nccn2c(-c3ccc(C(=O)NC4CC4)c(O)c3)cnc12` [Example 7-80, N-cyclopropyl-2-hydroxy-4-{8-[(2-methylpropyl)amino]imi-dazo[1,2-a]pyrazin-3-yl}benzamide], the IC50 came to 15.5 nM.
Same read-out and setting: in the case of `N#CCCNc1nccn2c(-c3ccc(C(=O)NC4CC4)c(O)c3)cnc12` [Example 7-81, 4-{8-[(2-cyanoethyl)amino]imi-dazo[1,2-a]pyrazin-3-yl}-N-cyclopropyl-2-hydroxybenzamide] it was 51.3 nM.
With `O=C(NC1CC1)c1ccc(-c2cnc3c(NCC(O)C(F)(F)F)nccn23)cc1O` (stereo not drawn) [Example 7-82, N-cyclopropyl-2-hydroxy-4-{8-[(3,3,3-trifluoro-2-hydroxypropyl)amino]imi-dazo[1,2-a]pyrazin-3-yl}benzamide], the IC50 was 56.7 nM.
`O=C(NC1CC1)c1ccc(-c2cnc3c(NCCC(F)(F)F)nccn23)cc1O` [Example 7-83, N-cyclopropyl-2-hydroxy-4-{8-[(3,3,3-trifluoropropyl)amino]imi-dazo[1,2-a]pyrazin-3-yl}benzamide]: the IC50 is 22.3 nM.
On the same count and under the same terms, in the case of `CC(O)CNc1nccn2c(-c3ccc(C(=O)NC4CC4)c(O)c3)cnc12` (stereo not drawn) [Example 7-84, N-cyclopropyl-2-hydroxy-4-{8-[(2-hydroxypropyl)amino]imi-dazo[1,2-a]pyrazin-3-yl}benzamide] it was 96.9 nM.
Still for that read-out and setting: in the case of `Cn1cc(CNc2nccn3c(-c4ccc(C(=O)NC5CC5)c(O)c4)cnc23)cn1` [Example 7-85, N-cyclopropyl-2-hydroxy-4-(8-{[(1-methyl-1H-pyrazol-4-yl)methyl]amino}imi-dazo[1,2-a]pyrazin-3-yl)benzamide] it was 105 nM; in that of `CCOC(C)CNc1nccn2c(-c3ccc(C(=O)NC4CC4)c(O)c3)cnc12` (stereo not drawn) [Example 7-86, N-cyclopropyl-4-{8-[(2-ethoxypropyl)amino]imi-dazo[1,2-a]pyrazin-3-yl}-2-hydroxybenzamide], 268 nM.
For the compound `CC(C)(O)CNc1nccn2c(-c3ccc(C(=O)NC4CC4)c(O)c3)cnc12` [Example 7-87, N-cyclopropyl-2-hydroxy-4-{8-[(2-hydroxy-2-methylpropyl)amino]imi-dazo[1,2-a]pyrazin-3-yl}benzamide], the IC50 came to 160 nM.
As for `O=C(NC1CC1)c1ccc(-c2cnc3c(NCc4ccc(Cl)s4)nccn23)cc1O` [Example 7-88, 4-(8-{[(5-chlorothiophen-2-yl)methyl]amino}imi-dazo[1,2-a]pyrazin-3-yl)-N-cyclopropyl-2-hydroxybenzamide], the IC50 worked out at 91.3 nM.
As for `O=C(NC1CC1)c1ccc(-c2cnc3c(NCC4CCCCO4)nccn23)cc1O` (stereo not drawn) [Example 7-89, N-cyclopropyl-2-hydroxy-4-{8-[(tetrahydro-2H-pyran-2-ylmethyl)amino]imi-dazo[1,2-a]pyrazin-3-yl}benzamide], the IC50 came out at 247 nM.
Take `Cc1cc(-c2cnc3c(NCCO)nccn23)ccc1C(=O)NC1CC1` [Example 7-91, N-cyclopropyl-4-{8-[(2-hydroxyethyl)amino]imi-dazo[1,2-a]pyrazin-3-yl}-2-methylbenzamide]: the half-maximal inhibitory concentration (IC50) is 363 nM.
Still for that read-out and setting: the value for `Cc1cc(-c2cnc3c(NCCCN4CCOCC4)nccn23)ccc1C(=O)NC1CC1` [Example 7-92, N-cyclopropyl-2-methyl-4-(8-{[3-(morpholin-4-yl)propyl]amino}imi-dazo[1,2-a]pyrazin-3-yl)benzamide] was 389 nM.
For `Cc1cc(-c2cnc3c(NCCC(C)C)nccn23)ccc1C(=O)NC1CC1` [Example 7-93, N-cyclopropyl-2-methyl-4-{8-[(3-methylbutyl)amino]imi-dazo[1,2-a]pyrazin-3-yl}benzamide], the IC50 was 13.2 nM.
Take `Cc1cc(-c2cnc3c(NCC4CCCO4)nccn23)ccc1C(=O)NC1CC1` (stereo not drawn) [Example 7-94, N-cyclopropyl-2-methyl-4-{8-[(tetrahydrofuran-2-ylmethyl)amino]imi-dazo[1,2-a]pyrazin-3-yl}benzamide]: the IC50 came to 80.8 nM.
Regarding `Cc1cc(-c2cnc3c(NCCCN4CCCC4=O)nccn23)ccc1C(=O)NC1CC1` [Example 7-95, N-cyclopropyl-2-methyl-4-(8-{[3-(2-oxopyrrolidin-1-yl)propyl]amino}imi-dazo[1,2-a]pyrazin-3-yl)benzamide], the IC50 was found to be 562 nM.
Still for that read-out and setting: in the case of `COCCNc1nccn2c(-c3ccc(C(=O)NC4CC4)c(C)c3)cnc12` [Example 7-96, N-cyclopropyl-4-{8-[(2-methoxyethyl)amino]imi-dazo[1,2-a]pyrazin-3-yl}-2-methylbenzamide] it was 229 nM; in that of `Cc1cc(-c2cnc3c(NCc4ccccc4F)nccn23)ccc1C(=O)NC1CC1` [Example 7-97, N-cyclopropyl-4-{8-[(2-fluorobenzyl)amino]imi-dazo[1,2-a]pyrazin-3-yl}-2-methylbenzamide], 31.6 nM.
Still for that read-out and setting: the value for `Cc1cc(-c2cnc3c(NCc4ccc(F)cc4)nccn23)ccc1C(=O)NC1CC1` [Example 7-98, N-cyclopropyl-4-{8-[(4-fluorobenzyl)amino]imi-dazo[1,2-a]pyrazin-3-yl}-2-methylbenzamide] was 39.6 nM; that for `Cc1cc(-c2cnc3c(NCCCCO)nccn23)ccc1C(=O)NC1CC1` [Example 7-99, N-cyclopropyl-4-{8-[(4-hydroxybutyl)amino]imi-dazo[1,2-a]pyrazin-3-yl}-2-methylbenzamide] was 70.8 nM.
Same read-out and setting: in the case of `Cc1cc(-c2cnc3c(NCC(F)(F)F)nccn23)ccc1C(=O)NC1CC1` [Example 7-100] it was 217 nM; in that of `Cc1cc(-c2cnc3c(NCc4cccs4)nccn23)ccc1C(=O)NC1CC1` [Example 7-102, N-cyclopropyl-2-methyl-4-{8-[(thiophen-2-ylmethyl)amino]imi-dazo[1,2-a]pyrazin-3-yl}benzamide], 18.7 nM.

The assay is the same for the next values; noted with them: N-terminally GST-tagged human full length recombinant Mps-1; 10 μM ATP; 1 μM biotinylated peptide substrate; 60 min at 22° C.; read-out: Mps1 IC50.
Regarding `CCNc1nccn2c(-c3ccc(C(=O)NC4CC4)c(O)c3)cnc12` [Example 7-77, N-cyclopropyl-4-[8-(ethylamino)imidazo[1,2-a]pyrazin-3-yl]-2-hydroxybenzamide], the IC50 came out at 63.1 nM.
As for `CCCNc1nccn2c(-c3ccc(C(=O)NC4CC4)c(C)c3)cnc12` [Example 7-90, N-cyclopropyl-2-methyl-4-[8-(propylamino)imidazo[1,2-a]pyrazin-3-yl]benzamide], the IC50 came out at 29.7 nM.
With `Cc1cc(-c2cnc3c(NCc4ccccc4)nccn23)ccc1C(=O)NC1CC1` [Example 7-101, 4-[8-(benzylamino)imidazo[1,2-a]pyrazin-3-yl]-N-cyclopropyl-2-methylbenzamide], the IC50 was determined as 34.1 nM.
On the same count and under the same terms, in the case of `CCNc1nccn2c(-c3ccc(C(=O)NC4CC4)c(C)c3)cnc12` [Example 7-103, N-cyclopropyl-4-[8-(ethylamino)imidazo[1,2-a]pyrazin-3-yl]-2-methylbenzamide] it was 145 nM.

The values are drawn from patent publication US20130303532A1, “IMIDAZOPYRAZINES FOR USE AS MPS-1 AND TKK INHIBITORS IN THE TREATMENT HYPERPROLIFERATIVE DISORDERS” (BAYER INTELLECTUAL PROPERTY GmbH, priority 2010, published 2013).
